In ChEMBL document CHEMBL1201862, “PubChem BioAssay data set” (2004):
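Cultured in 96-well plates, cells were exposed to test compound for 48 hours across five concentrations. GI50 = concentration required for 50% inhibition of growth.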 Active and inactive are the calls of the source. Rule as the data show it: active = GI50 up to about 1.1 µM and inactive = higher.

Assays:
Test in all cases: DTP human tumour cell line panel, 48 h
[1] = test system: UACC-62
[2] = test system: Malme-3M
[3] = test system: RXF 393
[4] = test system: SK-MEL-5
[5] = test system: A549
[6] = test system: MDA-N
[7] = test system: SN12C
[8] = test system: M14
[9] = test system: IGROV-1
[10] = test system: HCC 2998
[11] = test system: NCI-H460
[12] = test system: RPMI-8226
[13] = test system: COLO 205
[14] = test system: 786-0
[15] = test system: U-251
[16] = test system: MDA-MB-231
[17] = test system: ACHN
[18] = test system: DU-145
[19] = test system: KM12
[20] = test system: MCF7

| SMILES | GI50 [1] | GI50 [2] | GI50 [3] | GI50 [4] | GI50 [5] | GI50 [6] | GI50 [7] | GI50 [8] | GI50 [9] | GI50 [10] | GI50 [11] | GI50 [12] | GI50 [13] | GI50 [14] | GI50 [15] | GI50 [16] | GI50 [17] | GI50 [18] | GI50 [19] | GI50 [20] |
| --- | --- | --- | --- | --- | --- | --- | --- | --- | --- | --- | --- | --- | --- | --- | --- | --- | --- | --- | --- | --- |
| O=C(NNS(=O)(=O)c1ccccc1)c1cccnc1 | > 100 µM (inactive) | > 100 µM (inactive) | > 100 µM (inactive) | > 100 µM (inactive) | > 100 µM (inactive) | > 100 µM (inactive) | > 100 µM (inactive) | > 100 µM (inactive) | > 100 µM (inactive) | > 100 µM (inactive) | > 100 µM (inactive) | > 100 µM (inactive) | > 100 µM (inactive) | > 100 µM (inactive) | > 100 µM (inactive) | > 100 µM (inactive) | > 100 µM (inactive) | > 100 µM (inactive) | > 100 µM (inactive) | > 100 µM (inactive) |
| CC1=NN(c2cccc(Cl)c2)C2(C1)C(Cl)C(=O)N2c1nc2ccccc2s1 (stereo not given) | 31.1 µM (inactive) | 30.5 µM (inactive) | 27.9 µM (inactive) | 19.4 µM (inactive) | 25.6 µM (inactive) | 29.2 µM (inactive) | 22.8 µM (inactive) | 22.5 µM (inactive) | 21.8 µM (inactive) | 55.1 µM (inactive) | 36.6 µM (inactive) | 17.3 µM (inactive) | 18 µM (inactive) | 21.1 µM (inactive) | 23.9 µM (inactive) | 21.5 µM (inactive) | 32.7 µM (inactive) | 37.1 µM (inactive) | 22.3 µM (inactive) | 32.1 µM (inactive) |
| COC(=O)C1(Cc2ccc3c(c2)CCC3)Cc2cc3c(cc2C1=O)CCC3 (stereo not given) | 37 µM (inactive) | 41.5 µM (inactive) | 29.4 µM (inactive) | 14.3 µM (inactive) | 18.2 µM (inactive) | 13 µM (inactive) | 26.9 µM (inactive) | 20.8 µM (inactive) | 24.4 µM (inactive) | 22.1 µM (inactive) | 15.3 µM (inactive) | 8.02 µM (inactive) | 15.4 µM (inactive) | > 46.5 µM (inactive) | 29.4 µM (inactive) | 24.6 µM (inactive) | 37.2 µM (inactive) | 44.4 µM (inactive) | 18 µM (inactive) | 21.4 µM (inactive) |
| CC1=NN2C(=N)/C(=C/c3ccc(F)cc3)C(=O)N=C2S1 | > 100 µM (inactive) | > 100 µM (inactive) | > 100 µM (inactive) | > 100 µM (inactive) | > 100 µM (inactive) | > 100 µM (inactive) | > 100 µM (inactive) | > 100 µM (inactive) | > 100 µM (inactive) | 44.4 µM (inactive) | > 100 µM (inactive) | > 100 µM (inactive) | > 100 µM (inactive) | > 100 µM (inactive) | > 100 µM (inactive) | > 100 µM (inactive) | > 100 µM (inactive) | > 100 µM (inactive) | > 100 µM (inactive) | > 100 µM (inactive) |
| Cc1cc(C)c2c(c1)CC1(Cc3c(ccc(C)c3C)C1=O)C2=O (stereo not given) | > 100 µM (inactive) | > 100 µM (inactive) | > 100 µM (inactive) | > 100 µM (inactive) | > 100 µM (inactive) | > 100 µM (inactive) | > 100 µM (inactive) | > 100 µM (inactive) | > 100 µM (inactive) | > 100 µM (inactive) | > 100 µM (inactive) | > 100 µM (inactive) | > 10 µM (inactive) | > 100 µM (inactive) | > 100 µM (inactive) | > 100 µM (inactive) | > 100 µM (inactive) | > 100 µM (inactive) | > 100 µM (inactive) | > 100 µM (inactive) |
| O=C(CC(C(=O)c1cccs1)c1ccc2c(c1)OCO2)c1ccccc1 (stereo not given) | > 100 µM (inactive) | > 100 µM (inactive) | > 100 µM (inactive) | > 100 µM (inactive) | > 100 µM (inactive) | > 100 µM (inactive) | > 100 µM (inactive) | 73.8 µM (inactive) | > 100 µM (inactive) | > 100 µM (inactive) | 46.7 µM (inactive) | > 100 µM (inactive) | > 100 µM (inactive) | > 100 µM (inactive) | > 100 µM (inactive) | > 100 µM (inactive) | > 100 µM (inactive) | > 100 µM (inactive) | > 100 µM (inactive) | > 100 µM (inactive) |
| C=C[C@H]1CN2CCc3c([nH]c4c([C@@H]5CCCN5C)c(O)ccc34)[C@@H]2C[C@@H]1C[C@H]1c2[nH]c3ccccc3c2CCN1C | 1.83 µM (inactive) | 1.85 µM (inactive) | 0.274 µM (active) | 1.57 µM (inactive) | 1.5 µM (inactive) | 1.67 µM (inactive) | 1.82 µM (inactive) | 1.09 µM (active) | 1.32 µM (inactive) | 1.72 µM (inactive) | 1.39 µM (inactive) | 0.478 µM (active) | 1.61 µM (inactive) | 1.4 µM (inactive) | 1.38 µM (inactive) | 1.76 µM (inactive) | 1.65 µM (inactive) | 1.69 µM (inactive) | 1.47 µM (inactive) | 1.96 µM (inactive) |
